# Laboratory results from patent publication US9073901B2, “DGAT2 inhibitors” (Eli Lilly and Company, priority 2013, dated 2015).
# What was measured:
# human DGAT2 [1] = target: T1, human DGAT2 (Homo sapiens, UniProt Q96PD7); test: Diacylglycerol Acyltransferase 2 (DGAT2) Biochemical Assay; parameters: FLAG (N); made in house; host or cells: insect SF9 cells; conditions: recombinant human DGAT2 (FLAG tag, SF9), 14C oleoyl-CoA, 1 hr RT; geometric mean
# T1 sequence (Q96PD7 1-388): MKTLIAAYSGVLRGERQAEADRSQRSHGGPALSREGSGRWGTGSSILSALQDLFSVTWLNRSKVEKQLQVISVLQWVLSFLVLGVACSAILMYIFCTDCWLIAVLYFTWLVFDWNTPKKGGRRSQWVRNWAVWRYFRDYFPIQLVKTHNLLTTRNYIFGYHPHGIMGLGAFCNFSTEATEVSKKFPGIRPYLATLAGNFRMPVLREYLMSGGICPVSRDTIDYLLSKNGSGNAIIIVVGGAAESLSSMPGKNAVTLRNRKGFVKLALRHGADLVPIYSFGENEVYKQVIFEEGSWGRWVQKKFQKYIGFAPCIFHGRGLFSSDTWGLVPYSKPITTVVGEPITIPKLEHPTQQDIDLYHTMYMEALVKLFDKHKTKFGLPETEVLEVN
# Protocol: Diacylglycerol Acyltransferase 2 (DGAT2) Biochemical Assay
# The in vitro inhibitory activity of compounds against human DGAT2 is evaluated in this assay. The assay uses recombinant human DGAT2 with a FLAG tag at the amino terminus, expressed in genetically engineered insect SF9 cells, and purified through affinity chromatography.
# DGAT2 catalyzes transfer of an acyl moiety from acyl-Coenzyme A onto diacylglycerol, to form triacylglycerol. In this particular embodiment of the assay oleate is used as the acyl moiety that is transferred. To facilitate miscibility of all lipid components, all lipids used in the assay contain oleyl moiety as the only acyl group. […]
# Mix SUV suspensions and compound solution with other components of the assay to achieve the following concentration of individual ingredients: TrisHCl (pH 7.5, 150 mM), sucrose (250 mM), MgCl2 (5 mM), dithiothreitol (DTT) (0.5 mM), oleoyl coenzyme A (oleoyl-CoA) (12 μM), 1-^14C oleoyl coenzyme A (oleyl-CoA-^14C) (8 μM), dioleoyl glycerol (DOG) (0.6 mM), and dioleoyl phosphatidylcholine (DOPC) (1.4 mM), DGAT2 protein (0.5 nM), DMSO (1%, v/v), with test compound concentration within a 1 nM to 100 μM range, in 30 μl total volume. […] Measure the radioactivity using a Perkin-Elmer TopCount instrument. […] Calculate the degree of inhibition of DGAT2 by measuring the radioactivity at 10 different concentrations for each compound. […]
# human DGAT2 [2] = target: T1, human DGAT2; test: Diacylglycerol Acyltransferase 2 (DGAT2) Cell-Based Assay (HepG2, 13C18-oleate incorporation into triolein); parameters: This assay uses human hepatoma cell-line, HepG2, as a source of acyltransferase activity; endogenous in cells; host or cells: HepG2 (human hepatoma); conditions: HepG2 cells, 13C18-oleate incorporation into triolein normalized to POPC; geometric mean
# Protocol: Diacylglycerol Acyltransferase 2 (DGAT2) Cell-Based Assay
# The inhibitory activity of compounds against human DGAT2 in a cell environment is evaluated in this assay. This assay uses human hepatoma cell-line, HepG2, as a source of acyltransferase activity.
# HepG2 cell line is a commonly used model for metabolic reactions that occur in human hepatocytes in vivo. Synthesis of triglyceride in this cell line is followed by measuring incorporation of isotopically labeled oleate into triolein (a triglyceride with 3 oleoyl moieties).
# Dispense the HepG2 cells into a 96-well microplate, which has been previously coated with Poly-D-lysine, in an amount of 50,000 cells/well in 100 μL Minimal Essential Media (MEM) with 10% Fetal Bovine Serum (FBS). Incubate the cells for 16 hr at 37° C. Replace the cell culture medium with MEM containing 2% Bovine Serum Albumin Dissolve the test compound in 0.5% DMSO and prepare serial dilutions in half-log increments. Add the serially diluted test compound into separate wells. Incubate for 0.5 hr at 37° C. Thereafter replace the cell culture medium with a medium of the same composition, but which includes 50 μM ^13C18-oleate and 300 μM hydropropyl-β-cyclodextrine. Incubate for an additional 4 hr at 37° C. Discard the cell culture medium by flipping the microplate over thereby draining the wells and then soaking up any residual media from the wells with a paper towel. […]
# plasma triglycerides = test: In Vivo Pharmacodynamic Assay (reduction in plasma triglycerides); conditions: Mus musculus, po, male C57BL6 mice, gavage 0.1 to 10 mg/kg with 3 mg/kg DGAT1 inhibitor, tyloxapol
# Protocol: In Vivo Pharmacodynamic Assay
# This assay measures the potency of compounds by measuring the reduction in plasma triglycerides in mice treated with the test compounds compared to control animals that are treated only with the vehicle solution. Male, C57BL6 mice (10-11 weeks old, each approximately 22 g in weight) are used in this assay.
# Triglycerides synthesized in the liver are secreted into circulation as a component of the Very Low Density Lipoprotein (VLDL). To prevent degradation of triglycerides in circulation by the Lipoprotein Lipase (LPL), this assay uses IV injection of a detergent, tyloxapol, which inhibits activity of LPL. Since another enzyme, DGAT1, participates in the synthesis of liver triglyceride, a saturating dose of a DGAT1 inhibitor (sodium{trans-4-[4-(4-amino-7,7-dimethyl-7H-pyrimido[4,5-b][1,4]oxazin-6-yl)phenyl]cyclohexyl}acetate, IUPAC ACDLABS naming convention, see Dow et al. Bioorg. & Med. Chem., (2011) 21(20), 6122-6128) is also used in this assay. […]
# Collect the blood via cardiac puncture into tube containing the anti-coagulant EDTA. […] Freeze the plasma samples on dry ice until they are to be analyzed. […] Reduction in total triglycerides in the test mice is calculated relative to the concentration of triglycerides in the control mice.
# [3] = tested on: LDL-c, VLDL-c and TG serum concentrations; test: In Vivo Efficacy Model (LDL receptor-deficient mice); conditions: male LDL receptor-deficient mice, fourteen days, serum vs control group
# Protocol: This assay measures the potency of compounds by measuring the reduction in low density lipoprotein cholesterol (LDL-c), very low density lipoprotein cholesterol (VLDL-c), and triglycerides (TG). Male, LDL receptor-deficient mice (29 weeks old, each approximately 30 g in weight) are used in this assay.
# Feed the mice a standard mouse chow diet for two weeks prior to dosing. Prepare a test solution for oral gavage by suspend the compounds in acacia at 0.3, 1, and 3 mg/mL. Separate the mice into a test group and a control group. Thereafter at the first day of the third week dose the mice in the test group with the test solution for fourteen days, BID. Similarly dose the mice in the control group with just the vehicle without any of the test compound. Four hours after the last dose euthanized the mice with CO2. Immediately collect the blood via cardiac puncture. Isolate the serum to measure serum triglycerides as well as cholesterol in individual lipoprotein fractions. Separate the lipoprotein fractions by known HPLC methods. Determine the cholesterol concentration associated with each lipoprotein fraction by a colorimetric method (Roche Cholesterol/HP Reagent 11875540), using isolated lipoprotein fractions with known cholesterol concentration as standards. Results obtained at the highest dose, 30 mg/kg, BID, expressed as the percentage of change in comparison of the LDL-c, VLDL-c and TG serum concentrations of mice in the test group to those of mice n the control group.
# To enable absorption of Example 2 at the 30 mg/kg dose, prepare that compound as 1:1 (w/w) dry mixture with hydroxypropyl methylcellulose prior to addition to acacia vehicle.
# liver fat content = conditions: therapy with lomitapide; cited from earlier work
# [4] = 30 mg/kg BID oral gavage in acacia
# [5] = 30 mg/kg BID, compound as 1:1 (w/w) dry mixture with hydroxypropyl methylcellulose in acacia
IC50 (human DGAT2 [1]) [nM],IC50 (human DGAT2 [2]) [nM],SMILES,ED50 (plasma triglycerides) [mg/kg],"% change LDL-c [3, 4] [%]","% change Triglycerides [3, 4] [%]","% change VLDL-c [3, 4] [%]","% change LDL-c [3, 5] [%]","% change Triglycerides [3, 5] [%]","% change VLDL-c [3, 5] [%]",increase in the liver fat content (liver fat content) [fold]
91,150,"CNS(=O)(=O)Cc1ccc(Oc2cc(CNc3ncc(Cl)cn3)nc(C)n2)cc1 [Example 1, 1-[4-[6-[[(5-Chloropyrimidin-2-yl)amino]methyl]-2-methyl-pyrimidin-4-yl]oxyphenyl]-N-methyl-methanesulfonamide]",0.29,−51,−63,−75,–,–,–,–
120,150,Cc1nc(CNc2ncc(Cl)cn2)cc(Oc2ccc(CS(N)(=O)=O)cc2)n1 [Example 2],0.27,–,–,–,−55,−72,−82,–
–,–,O=C(NC1CCN(CCCCC2(C(=O)NCC(F)(F)F)c3ccccc3-c3ccccc32)CC1)c1ccccc1-c1ccc(C(F)(F)F)cc1 [lomitapide],–,–,–,–,–,–,–,8
